Experimental data as given in patent EP0790989B1, “CERTAIN SUBSTITUTED BENZYLAMINE DERIVATIVES; A NEW CLASS OF NEUROPEPTIDE Y1 SPECIFIC LIGANDS” (PFIZER INC., priority 1994, dated 1996).
Counter-ions that a name gives are not always drawn.

Biological target: T1, human NPY1 receptors (Homo sapiens, UniProt P25929)
T1 construct: SK-N-MC cells were purchased from ATCC (Rockville, MD); host or cells: SK-N-MC cells (human neuroepithelioma line), intact confluent monolayers
T1 sequence (P25929 1-384): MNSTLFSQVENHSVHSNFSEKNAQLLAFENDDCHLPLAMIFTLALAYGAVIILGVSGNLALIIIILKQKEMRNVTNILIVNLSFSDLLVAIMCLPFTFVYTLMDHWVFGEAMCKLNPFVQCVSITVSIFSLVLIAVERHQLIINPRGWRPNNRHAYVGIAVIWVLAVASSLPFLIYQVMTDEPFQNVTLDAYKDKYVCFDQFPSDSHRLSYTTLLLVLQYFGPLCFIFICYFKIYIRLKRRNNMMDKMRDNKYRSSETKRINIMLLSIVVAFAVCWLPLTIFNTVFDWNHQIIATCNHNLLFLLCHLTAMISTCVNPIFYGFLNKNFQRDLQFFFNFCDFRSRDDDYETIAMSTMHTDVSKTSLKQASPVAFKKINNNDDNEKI
Test: Assay for Human NPY1 receptor binding activity ([125I]PYY binding to SK-N-MC cells)
Details: IC50, [125I]PYY (~50 pM) binding to confluent SK-N-MC cells, 3 hour incubation at room temperature
Protocol: The procedure used is similar to that described by Gordon et al. (J. Neurochem. 55:506-513, 1990). SK-N-MC cells were purchased from ATCC (Rockville, MD). Cells were maintained at 37°C and 5% CO2 in Dulbecco's modified essential media (DMEM) with L-glutamine and 110 mg/L sodium pyruvate, which was supplemented with 10% fetal bovine serum and 25 mM HEPES (pH 7.3). The binding assay was performed in 24-well plates (Falcon) when the cells were confluent. Taking care to not disturb the cells on the bottom of the wells, the media was aspirated, and 0.5 ml of Dulbecco's phosphate buffered saline (DPBS) with calcium and magnesium were added to each well. The DPBS was aspirated and an additional aliquot of DPBS was added and aspirated. To begin the assay, binding buffer consisting of serum-free DMEM containing 0.5% bovine serum albumin, 0.1% bacitracin and 0.1 mM phenylmethylsulfonylfluoride was added to each well. The cells and the binding buffer preincubated for 30 minutes at room temperature, at which point the drug dilution and [^125I]PYY (NEN-DuPont: 50000 -75000 cpm ∼ 50 pM) were added to yield a final volume of 250 ul. Nonspecific binding was defined with […] NPY (porcine or human, Bachem California). After a 3 hour incubation at room temperature, the plates were then put on ice and the wells were aspirated. The cells were washed 4-6 times with 0.5 ml of ice-cold DPBS. A dilute solution of Triton X-100 (1%) was then added to each well. After approximately 1 hour at room temperature, an aliquot from each well was transferred to a 12x75 mm testtube, and the amount of [^125I] was quantitated on a gamma counter with an efficiency of 80-85% (Genesys 5000, Laboratory Technologies). IC50 values were calculated with the non-linear curve fitting program RS/1 (BBN Software Products Corp., Cambridge, MA).

SMILES	IC50
CCOc1cccc(C2(N3CCN(c4ccccc4)CC3)CCC(C)CC2)c1 (stereo not drawn) [Compound 18, 1-(3-Ethoxyphenyl)-1-(4-phenylpiperazin-1-yl)-4-methyl-cyclohexane dihydrochloride]	0.075 µM
COCOc1cccc(C2(N3CCN(c4ccccc4)CC3)CCC(C)CC2)c1 (stereo not drawn) [Compound 29, 1-(3-Methoxymethoxyphenyl)-1-(4-phenylpiperazin-1-yl)-4-methyl-cyclohexane dihydrochloride]	0.039 µM
CCOc1cccc(C2(N3CCN(c4ccccc4)CC3)CCC(CC)CC2)c1 (stereo not drawn) [Compound 20, 1-(3-Ethoxyphenyl)-1-(4-phenylpiperazin-1-yl)-4-ethyl-cyclohexane dihydrochloride]	0.076 µM
CCOc1cccc(C2(N3CCN(c4ccccc4)CC3)CCC(CC)CC2)c1 (stereo not drawn) [Compound 21, 1-(3-Ethoxyphenyl)-1-(4-phenylpiperazin-1-yl)-4-ethyl-cyclohexane dihydrochloride]	0.525 µM
CCOc1cccc(C2(N3CCN(c4ccccc4)CC3)CCCCC2)c1 [Compound 9, 1-(3-Ethoxyphenyl)-1-(4-phenylpiperazin-1-yl)-cyclohexane dihydrochloride]	0.137 µM
COc1cccc(C2(N3CCN(c4ccccc4)CC3)CCC(C)CC2)c1 (stereo not drawn) [Compound 13, 1-(3-Methoxyphenyl)-1-(4-phenylpiperazin-1-yl)-4-methyl-cyclohexane dihydrochloride]	0.067 µM
